We go through two compounds from patent publication US20140171455A1, “Reduction of Microglia-Mediated Neurotoxicity by Kv1.3 Inhibition” (The Regents of the University of California, priority 2011, published 2014).

The structures appear in SMILES notation. Where two headings read alike, the source gives them in different places. Bridge positions count the residues as written; N and C are the ends. Peptide text beside a SMILES is read from it.

In one series the target is T1, Kv1.3 (Mus musculus, UniProt P16390).
T1 construct: pharmacological characterization of currents from cultured microglia stimulated for 48 hours with AbO or LPS; endogenous in cells; host or cells: primary microglia cultured from newborn C57Bl/6 mice, stimulated 48 h with AbO or LPS
The series can be described thus: Whole-cell voltage-clamp of Kv currents in cultured stimulated microglia. The class given is cell-based. The note with it: read-out: IC50 on microglial Kv current. The procedure: In order to determine if Kv1.3 is indeed functionally expressed in mouse microglia Applicants performed electrophysiological experiments on cultured mouse microglia in the whole-cell mode of the patch-clamp technique. Kv currents were elicited with 500 millisecond pulses from a holding-potential of −100 mV to +40 mV applied every 45 sec.
Microglia cultured from newborn C57B1/6 mice were treated with lipopolysaccharides (LPS) or AbO for 24 or 48 hrs. […] Kv currents were elicited by 500 ms voltage steps from −80 to 40 mV (representative traces on right).

For another series, the system named is hippocampal slices. In words: Hippocampal slices: AbetaO-induced microglia activation and neuronal damage. The conditions noted are these: AβO 20 nM, PAP-1 1 μM. The format is cell-based, mouse. From the text:
Three consecutive hippocampal slices were obtained from mouse brain and from mice received the same indicated treatment. One slice was used for CD11b staining (green) for activated microglia (slices outlined by Hoechst stain), one for propidium iodide (PI) uptake, and one for Fluoro-Jade C stain for neuronal damage. DG: dentate gyrus.

The conditions of series [1]: cited from earlier work.
The subject of another series is microglia. In words: Abeta uptake (phagocytosis) assay in microglia by flow cytometry. The class given is cell-based. The note with it: 2 hrs pre-treatment. From the text: Using an Aβ uptake assay, Applicants pretreated microglia with either control (vehicle only), anti-SRA (scavenger receptor A) antibody, doxycycline or PAP-1. FIG. 2 is a bar graph showing cell-associated fluorescence as measured by flow cytometry after 2 hrs of such pre-treatment. (n=3, *p<0.01 and **p<0.001 compared with control).
(Flow cytometry measures light scatter and fluorescence of single cells or particles in a stream.)

Series [2] concerns AβO-stimulated cultured microglia. The series can be described thus: AbetaO-induced microglial neurotoxicity (cultured microglia). The class given is cell-based, mouse. The note with it: co-treating AβO-stimulated cultured microglia; AβO 20 nM, PAP-1 1 μM. From the text:
(§1) Measurements were made in the conditioned medium and normalized to the amount of total cellular protein in each culture. n=4-6, *p<0.001 compared with control, **p<0.001 compared with the “AβO” group. […] NO released by AβO-treated microglia is the major soluble mediator of AβO-induced microglial neurotoxicity.

For series [3] the following is noted: rats; cited from earlier work.
The subject of the next series is cultured mouse microglia. The series can be described thus: Abeta-induced activation of cultured mouse microglia (proliferation, morphology, NFkB, NO, TNF-alpha). The class given is cell-based. The procedure:
FIGS. 1A and 1B show data regarding AβO-induced NFκ-B and NO, respectively.
Two (2) hours after administration of the indicated treatment, the mouse brains were sectioned and immunostained with an antibody for p65 of NFκB to mark cells with NFκB activation. Numbers of p65-positive cells per 200 DAPI-labeled cells were determined.
as §1

For series [4] the following is noted: rhesus macaques; cited from earlier work.
The test system of series [5] is rat hippocampal slices (CA1 LTP). The series can be described thus: CA1 LTP induction in rat hippocampal slices with AbO. The class given is cell-based. The note with it: PAP-1 10 μM pretreatment 30 min prior to AbO 50 nM; 45 min after HFS. The procedure: FIG. 7 summarizes an experiment wherein, under control conditions, CA1 LTP was induced by high frequency stimulation (HFS), which consists of 4 trans of 100Hz basal intensity stimulation lasting for 1 s per train. In control (vehicle only) group, following the HFS, the amplitude or slope of fEPSP was increased to 209±28% of baseline at 45 min after HFS. The bath application of AbO (50 nM) for 10 min blocked the induction of LTP (126±6.7% of control). […] The mean of five consecutive measurements at the end of LTP induction (45 min) was normalized to the baseline (100%) which was the mean of five consecutive measurements just before the HFS.

The conditions of series [6]: rodents or primates; cited from earlier work.

T1 sequence (P16390 whole entry): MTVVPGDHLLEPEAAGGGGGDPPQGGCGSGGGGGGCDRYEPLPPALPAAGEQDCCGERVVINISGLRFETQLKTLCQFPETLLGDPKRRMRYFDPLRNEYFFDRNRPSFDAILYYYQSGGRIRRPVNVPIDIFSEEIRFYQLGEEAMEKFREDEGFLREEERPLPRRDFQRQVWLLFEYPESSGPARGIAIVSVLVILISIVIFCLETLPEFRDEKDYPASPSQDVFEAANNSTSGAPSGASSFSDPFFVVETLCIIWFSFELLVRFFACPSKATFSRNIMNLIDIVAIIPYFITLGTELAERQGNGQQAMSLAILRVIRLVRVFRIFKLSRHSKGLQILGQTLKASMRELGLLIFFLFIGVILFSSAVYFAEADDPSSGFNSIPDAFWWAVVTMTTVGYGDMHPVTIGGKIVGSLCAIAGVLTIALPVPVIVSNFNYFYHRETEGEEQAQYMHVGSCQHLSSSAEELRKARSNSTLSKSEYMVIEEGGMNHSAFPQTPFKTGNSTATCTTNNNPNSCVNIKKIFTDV

By IC50 is commonly meant the midpoint of a concentration-inhibition curve. For `CC[C@H](C)[C@H](NC(=O)[C@@H](N)[C@@H](C)O)C(=O)N[C@H](C(=O)N[C@@H](CC(N)=O)C(=O)N[C@H](C(=O)N[C@@H](CCCCN)C(=O)N[C@H]1CSSC[C@@H]2NC(=O)[C@H](CCCCN)NC(=O)[C@H](C)NC(=O)CNC(=O)[C@H](C)NC(=O)[C@H](CO)NC(=O)[C@H](CCC(N)=O)NC(=O)CNC(=O)[C@H](Cc3ccccc3)NC(=O)[C@H](CCC(N)=O)NC(=O)[C@H](C)NC(=O)[C@H](CCCCN)NC(=O)[C@@H]3CSSC[C@@H](C(=O)N[C@@H](Cc4ccc(O)cc4)C(=O)N4CCC[C@H]4C(=O)N[C@@H](Cc4c[nH]cn4)C(=O)O)NC(=O)[C@H](CCCCN)NC(=O)[C@H](CSSC[C@H](NC(=O)[C@H](CCC(N)=O)NC(=O)[C@H](CCCCN)NC(=O)[C@@H]4CCCN4C(=O)[C@H](CO)NC(=O)[C@H]([C@@H](C)O)NC1=O)C(=O)N[C@@H](CC(C)C)C(=O)N1CCC[C@H]1C(=O)N1CCC[C@H]1C(=O)N3)NC(=O)[C@H](CCCCN)NC(=O)CNC(=O)[C@H](CC(N)=O)NC(=O)[C@H](CCSC)NC2=O)C(C)C)[C@@H](C)CC` [MgTX] (H-TIINVKCTSPKQCLPPCKAQFGQSAGAKCMNGKCKCYPH-OH; disulfide 7-29, 13-34, 17-36 (inferred); N-terminus and C-terminus assumed), the values for the IC50 at Kv1.3 (cultured microglia stimulated for 48 hours with AbO) and on Kv1.3 (cultured microglia stimulated for 48 hours with LPS) were 0.0797 nM and 0.0789 nM, respectively.
A word on the half-life: it is the time needed for the level to fall by half in the phase considered. As to `O=c1ccc2c(OCCCCOc3ccccc3)c3ccoc3cc2o1` [PAP-1, 5-(4-Phenoxybutoxy)psoralen], in the series with hippocampal slices, the “AβO-induced microglia activation (CD11b staining)” value is reported as “substantially reduced”; the “AβO-induced neuronal damage (propidium iodide uptake and Fluoro-Jade C staining)” value is “blocked”. Moreover, in [1] (in vivo, po), the oral bioavailability result was “orally bioavailable”. The “brain concentrations versus plasma concentrations (crosses the blood brain barrier)” value in series [1] (pharmacokinetic studies) is “equal or slightly exceed plasma-concentrations”. Moreover, the “Aβ cell-associated fluorescence (ability of microglia to phagocytose Aβ)” value in the series with microglia is listed as “did not impair”. The AβO-induced microglial neurotoxicity result in series [2] was “blocked”. Also, in series [3], the half-life is 3 h. Moreover, the “signs of microglia activation induced by AβO (proliferation, morphological transformation, NFκ-B activation, NO production)” value in the series with cultured mouse microglia (cultured mouse microglia, AβO 20 nM, PAP-1 1 μM) is “inhibited”. The “increased microglia release of tumor necrosis factor-α, NFκ-B activation and NO production induced by fAβ stimulation” value with cultured mouse microglia (fAβ stimulation) is recorded as “blocked”. For the same compound, the half-life in [4] was 6.7 h. In addition, the “inhibition by AbO of the induction of CA1 LTP” value in series [5] was “prevented”. In series [6], the long-term toxicity result is on record as “has not exhibited long-term toxicity”.
